Data published in PubChem BioAssay AID256 (DTP/NCI, 2004).
“And” between values parts separate entries of the source, which are not always exact repeats. Identical values can stand only once. Inconclusive results and toxic doses are left out. Rule for the calls: active = survival T/C of 150% or more; inactive = T/C below 125% in these data.

Tested on: CD2F1 mice, L1210 leukemia ip, survival T/C
Test: NCI In Vivo Anticancer Drug Screen. Data for tumor model L1210 Leukemia (intraperitoneal) in CD2F1 (CDF1) mice
Conditions: higher = longer survival
In short: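 Read-out first: treated-group measurement over vehicle-control measurement, expressed as a ratio. Animals bore a transplanted tumor line and were dosed with compound or vehicle.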

[1] = endpoint: mean survival time, dose: 100.0 mg/kg/injection, schedule: Q01DX009 (ip), vehicle: saline with Tween-80
[2] = endpoint: mean survival time, dose: 200.0 mg/kg/injection, schedule: Q01DX009 (ip), vehicle: saline with Tween-80
[3] = endpoint: mean survival time, dose: 400.0 mg/kg/injection, schedule: Q01DX009 (ip), vehicle: saline with Tween-80
[4] = endpoint: mean survival time, dose: 100.0 mg/kg/injection, schedule: Q04DX003 (ip), vehicle: saline with Tween-80
[5] = endpoint: mean survival time, dose: 200.0 mg/kg/injection, schedule: Q04DX003 (ip), vehicle: saline with Tween-80
[6] = endpoint: mean survival time, dose: 400.0 mg/kg/injection, schedule: Q04DX003 (ip), vehicle: saline with Tween-80
[7] = endpoint: mean survival time, dose: 25.0 mg/kg/injection, schedule: Q01DX009 (ip), vehicle: saline with Tween-80
[8] = endpoint: mean survival time, dose: 50.0 mg/kg/injection, schedule: Q01DX009 (ip), vehicle: saline with Tween-80
[9] = endpoint: mean survival time, dose: 100.0 mg/kg/injection, schedule: Q01DX001 (ip), vehicle: saline
[10] = endpoint: mean survival time, dose: 200.0 mg/kg/injection, schedule: Q01DX001 (ip), vehicle: saline
[11] = endpoint: mean survival time, dose: 400.0 mg/kg/injection, schedule: Q01DX001 (ip), vehicle: saline

Measured: T/C

S=C=Nc1cccc(Cl)c1
inactive: endpoint: mean survival time, dose: 75.0 mg/kg/injection, schedule: Q01DX009 (ip), vehicle: saline with Tween-80 95 % of control and 100 % of control | endpoint: mean survival time, dose: 150.0 mg/kg/injection, schedule: Q01DX009 (ip), vehicle: saline with Tween-80 100 % of control | endpoint: mean survival time, dose: 300.0 mg/kg/injection, schedule: Q01DX009 (ip), vehicle: saline with Tween-80 86 % of control

CC1(C)CC(O)(Cc2ccccc2)C(C)(O)c2ccccc21 (centres undefined)
inactive: [1] 102 % of control | [2] 88 % of control | [3] 86 % of control

NC(=O)c1cc2ccncc2c2ccccc12
inactive: [4] 97 % of control | [5] 97 % of control | [6] 106 % of control

O=C1[C@@H]2C3C=CC([C@H]4C(=O)N(CO)C(=O)[C@@H]34)[C@@H]2C(=O)N1CO
inactive: endpoint: median survival time, dose: 25.0 mg/kg/injection, schedule: Q01DX005 (ip), vehicle: Klucel (hydroxypropylcellulose) (HPC) 107 % of control | endpoint: median survival time, dose: 50.0 mg/kg/injection, schedule: Q01DX005 (ip), vehicle: Klucel (hydroxypropylcellulose) (HPC) 109 % of control | endpoint: median survival time, dose: 200.0 mg/kg/injection, schedule: Q01DX005 (ip), vehicle: Klucel (hydroxypropylcellulose) (HPC) 101 % of control

CC12CCC(C/C1=N\O)C2(C)C (centres undefined)
inactive: endpoint: mean survival time, dose: 12.5 mg/kg/injection, schedule: Q01DX009 (ip), vehicle: saline with Tween-80 106 % of control | [7] 97 % of control | [8] 102 % of control

CCOC(=O)CSc1ccc(F)cc1
inactive: [9] 90 % of control | [10] 100 % of control | [11] 91 % of control

COc1ccc(CCc2nc(CCCCO)[nH]c2C)cc1OC
inactive: [1] 92 % of control

CCCC/C=C\C(=O)OC
inactive: [8] 101 % of control | [1] 104 % of control | [2] 101 % of control

Cc1c(N)nc(I)c2ccccc12
inactive: [1] 98 % of control | [2] 93 % of control | [3] 87 % of control

CCOC(=O)C1(C(=O)OCC)C2CC=CCC21 (centres undefined)
inactive: endpoint: mean survival time, dose: 50.0 mg/kg/injection, schedule: Q01DX009 (ip), vehicle: acetone 100 % of control | endpoint: mean survival time, dose: 100.0 mg/kg/injection, schedule: Q01DX009 (ip), vehicle: acetone 92 % of control | endpoint: mean survival time, dose: 200.0 mg/kg/injection, schedule: Q01DX009 (ip), vehicle: acetone 97 % of control

N=C1CCCS1
inactive: endpoint: median survival time, dose: 25.0 mg/kg/injection, schedule: Q01DX009 (ip), vehicle: saline 112 % of control | endpoint: median survival time, dose: 50.0 mg/kg/injection, schedule: Q01DX009 (ip), vehicle: saline 116 % of control | endpoint: median survival time, dose: 100.0 mg/kg/injection, schedule: Q01DX009 (ip), vehicle: saline 122 % of control

CCc1ccc(NC(=O)c2ccc(C(=O)Nc3ccc(CC)cc3)cc2)cc1
inactive: [9] 95 % of control | [10] 95 % of control | [11] 104 % of control

NCCCNCCNCCCN
inactive: endpoint: mean survival time, dose: 25.0 mg/kg/injection, schedule: Q04DX003 (ip), vehicle: saline 101 % of control | endpoint: mean survival time, dose: 50.0 mg/kg/injection, schedule: Q04DX003 (ip), vehicle: saline 101 % of control | endpoint: mean survival time, dose: 100.0 mg/kg/injection, schedule: Q04DX003 (ip), vehicle: saline 97 % of control

O=C1C=CC(=O)c2c1ccc1ccccc21
inactive: endpoint: mean survival time, dose: 12.5 mg/kg/injection, schedule: Q01DX001 (ip), vehicle: acetone 104 % of control | endpoint: mean survival time, dose: 25.0 mg/kg/injection, schedule: Q01DX001 (ip), vehicle: acetone 105 % of control | endpoint: mean survival time, dose: 50.0 mg/kg/injection, schedule: Q01DX001 (ip), vehicle: acetone 105 % of control

COc1ccc(-c2c(O)c3c(OC)cc(OC)cc3oc2=O)cc1
inactive: [8] 100 % of control | [1] 93 % of control | [2] 103 % of control

Cc1c2c(cc3c1CCC1(C)C3CCC1C(C)CCC(C)C(C)C)CCCC2 (centres undefined)
inactive: [4] 94 % of control | [5] 94 % of control | [6] 89 % of control

COc1ccc(CC(=O)C(C)C(O)(C(F)(F)F)C(F)(F)F)cc1OC (centres undefined)
inactive: [4] 108 % of control | [5] 102 % of control | [6] 103 % of control

O=C(O)c1ccc2cc(O)ccc2c1
inactive: endpoint: mean survival time, dose: 100.0 mg/kg/injection, schedule: Q01DX009 (ip), vehicle: saline 100 % of control | endpoint: mean survival time, dose: 200.0 mg/kg/injection, schedule: Q01DX009 (ip), vehicle: saline 94 % of control

N#CCc1ccccc1-c1ccccc1CC#N
inactive: endpoint: mean survival time, dose: 5.0 mg/kg/injection, schedule: Q01DX001 (ip), vehicle: other 106 % of control | endpoint: mean survival time, dose: 10.0 mg/kg/injection, schedule: Q01DX001 (ip), vehicle: other 100 % of control | endpoint: mean survival time, dose: 20.0 mg/kg/injection, schedule: Q01DX001 (ip), vehicle: other 96 % of control | endpoint: mean survival time, dose: 40.0 mg/kg/injection, schedule: Q01DX001 (ip), vehicle: other 104 % of control

O=c1cc(O)c(Cl)nn1C1OC(CO)C(O)C1O (centres undefined)
inactive: endpoint: mean survival time, dose: 12.5 mg/kg/injection, schedule: Q01DX009 (ip), vehicle: water 103 % of control | endpoint: mean survival time, dose: 25.0 mg/kg/injection, schedule: Q01DX009 (ip), vehicle: water 97 % of control | endpoint: mean survival time, dose: 50.0 mg/kg/injection, schedule: Q01DX009 (ip), vehicle: water 100 % of control | endpoint: mean survival time, dose: 100.0 mg/kg/injection, schedule: Q01DX009 (ip), vehicle: water 100 % of control | endpoint: mean survival time, dose: 200.0 mg/kg/injection, schedule: Q01DX009 (ip), vehicle: water 95 % of control | endpoint: mean survival time, dose: 400.0 mg/kg/injection, schedule: Q01DX009 (ip), vehicle: water 91 % of control

CCC(=O)C(C)(C)c1ccccc1 (tested in a mixture with another compound)
inactive: endpoint: mean survival time, dose: 100.0 mg/kg/injection, schedule: Q01DX001 (ip), vehicle: saline with Tween-80 110 % of control | endpoint: mean survival time, dose: 200.0 mg/kg/injection, schedule: Q01DX001 (ip), vehicle: saline with Tween-80 98 % of control

O=C(O)c1cc2ccccc2s1
inactive: [9] 98 % of control | [10] 96 % of control | [11] 92 % of control

CCOC(=O)CNC(=O)Oc1ccc(C=O)cc1OC
inactive: [7] 100 % of control | [8] 101 % of control | [1] 90 % of control
